Laboratory results reported in ChEMBL document CHEMBL1132766, “Synthesis and antiamoebic activity of new cyclooctadiene ruthenium(II) complexes with 2-acetylpyridine and benzimidazole derivatives” (Bioorg Med Chem Lett, 2000).
Values after ≈ are worked out from the molar mass of the structure shown.

system: Entamoeba histolytica; test: Tested for antiamoebic activity against HK-9 strain of Entamoeba histolytica; assay type: functional, organism-based

| Compound | IC50 |
| --- | --- |
| C/C(=N\NC(N)=S)c1ccccn1 | 0.31 µg/mL (≈ 1.6 µM) |
| c1ccc(-c2nc3ccccc3[nH]2)nc1 | 0.42 µg/mL (≈ 2.15 µM) |
| C/C(=N\N=C(/S)SCc1ccccc1)c1ccccn1 | 0.4 µg/mL (≈ 1.33 µM) |
| CS/C(S)=N/N=C(\C)c1ccccn1 | 0.38 µg/mL (≈ 1.69 µM) |
| Cc1ncc([N+](=O)[O-])n1CCO [METRONIDAZOLE] | 0.33 µg/mL (≈ 1.93 µM) |
